Data from ChEMBL document CHEMBL1146017, “Dipeptide vinyl sultams: synthesis via the Wittig-Horner reaction and activity against papain, falcipain-2 and Plasmodium falciparum” (Bioorg Med Chem Lett, 2006).
Calls of active or inactive are those of the source. The rule behind the calls is not given here.

Tests used:
[1] = target: T1, Falcipain 2 (Plasmodium falciparum, UniProt Q9N6S8); assay: Inhibition of recombinant falcipain2
T1 sequence (Q9N6S8 whole entry): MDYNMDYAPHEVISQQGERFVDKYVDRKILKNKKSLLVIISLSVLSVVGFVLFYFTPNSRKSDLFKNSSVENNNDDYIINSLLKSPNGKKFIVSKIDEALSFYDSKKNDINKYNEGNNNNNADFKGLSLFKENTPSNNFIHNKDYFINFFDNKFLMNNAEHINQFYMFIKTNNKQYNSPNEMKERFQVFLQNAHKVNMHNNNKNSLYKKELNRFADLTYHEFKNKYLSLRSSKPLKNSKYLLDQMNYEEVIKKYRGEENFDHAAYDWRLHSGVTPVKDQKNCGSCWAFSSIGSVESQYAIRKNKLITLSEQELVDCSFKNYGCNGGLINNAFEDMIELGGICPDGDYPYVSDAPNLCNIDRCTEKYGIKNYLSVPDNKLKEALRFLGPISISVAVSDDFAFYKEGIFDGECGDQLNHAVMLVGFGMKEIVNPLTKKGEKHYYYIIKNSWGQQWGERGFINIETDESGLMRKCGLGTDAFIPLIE

[2] = system: Plasmodium falciparum; assay: Inhibition of Plasmodium falciparum W2; assay type: functional, organism-based
[3] = target: T2, Papain (Carica papaya) (UniProt P00784); assay: Inhibition of papain at 50 uM
T2 sequence (whole entry): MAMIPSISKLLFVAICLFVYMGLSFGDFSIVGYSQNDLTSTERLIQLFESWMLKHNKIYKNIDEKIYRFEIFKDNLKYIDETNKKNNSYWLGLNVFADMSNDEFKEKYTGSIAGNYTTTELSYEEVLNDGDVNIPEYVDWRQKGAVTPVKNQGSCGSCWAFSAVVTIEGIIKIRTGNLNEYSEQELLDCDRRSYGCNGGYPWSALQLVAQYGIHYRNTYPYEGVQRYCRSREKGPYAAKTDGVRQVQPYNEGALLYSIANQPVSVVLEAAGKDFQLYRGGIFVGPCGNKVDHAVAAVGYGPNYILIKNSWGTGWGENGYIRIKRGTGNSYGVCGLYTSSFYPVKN

[4] = target: T2, Papain (Carica papaya); assay: Inhibition of papain upto 50 uM after 30 min

SMILES	IC50 [1] [µM]	IC50 [2] [µM]	inhibition [3]	inhibition [4]
CC(C)C[C@H](NC(=O)N1CCOCC1)C(=O)N[C@H](/C=C1\CCN(Cc2ccccc2)S1(=O)=O)Cc1ccccc1	48.4	> 10	–	–
CC(C)C[C@H](NC(=O)N1CCOCC1)C(=O)N[C@H](/C=C1\CCCN(Cc2ccccc2)S1(=O)=O)Cc1ccccc1	13.7	7.8	inactive	–
CC(C)(C)OC(=O)N[C@H](/C=C1\CCCN(Cc2ccccc2)S1(=O)=O)Cc1ccccc1	–	–	inactive	–
CC(=O)N[C@@H](Cc1ccccc1)C(=O)N[C@H](/C=C1\CCCN(c2ccccc2)S1(=O)=O)Cc1ccccc1	26.5	> 10	–	inactive

Further lines, results first:

IC50 [1] [µM]	IC50 [2] [µM]	inhibition [3]	inhibition [4]	SMILES
23.6	> 10	inactive	–	CC(C)C[C@H](NC(=O)N1CCOCC1)C(=O)N[C@H](/C=C1/CCCN(Cc2ccccc2)S1(=O)=O)Cc1ccccc1
31.4	> 10	–	–	CC(C)C[C@H](NC(=O)N1CCOCC1)C(=O)N[C@H](/C=C1\CCCN(c2ccccc2)S1(=O)=O)Cc1ccccc1
